From patent US10456441B2, “Augmenting the immune response by promoting cell death of immune cells” (The University of Vermont and State Agricultural College, priority 2014, dated 2019)

Experiments:
[1] = human trials; cited from earlier work
γδ T cells = assay: Mixed cultures of γδ T cells and BMDC: γδ T cell activation (IL-17, IFN-γ, CD25); type: cell-based, mice
Description: Cells were washed three times and then rocked with goat anti-rat conjugated magnetic beads at a 10:1 ratio of beads to cell at 4° C. for 45 min. Magnetic depletion was used to remove bead-bound cells. […] After 2 days, cells were removed from anti-TCR-γδ stimulation, supplied with fresh medium plus IL-2, and returned to culture at a density of 0.3×10^6 cells/ml. Cells were counted daily and supplied with fresh media containing 50 units/ml IL-2. […] In addition, in some experiments freshly isolated splenic γδ T cells were prepared using anti-γδ-coated magnetic beads (Miltenyi Biotec) and magnet purification.
(§1) The preparation of bone marrow-derived dendritic cells (BMDC) was done according to the method of Lutz et al. (26) using GM-CSF ([…] PeproTech, Rocky Hill N.J.) or GM-CSF plus IL-4 (10 μg/ml, PeproTech). Cells were used on day 7.
Day 7 γδ T cells and BMDC were cultured either individually or together at a 1:1 ratio (10^6 cells/ml each). To some cultures the following reagents were added: a sonicate of Borrelia burgdorferi (10 μg/ml), zVAD-fmk (MP Biomedical, Santa Ana Calif.) at the doses indicated, necrostatin (50 μM, R&D Systems, Minneapolis, Minn.), anti-TNF-α (10 μg/ml, Calbiochem, Darnstadt, Germany),, anti-IL-1 Receptor antagonist, Anakinra (200 ng/ml, Amgen, Thousand Oaks, Calif.), anti-IL-12 (10 μg/ml, BioLegend San Diego, Calif.), anti-IL-18 (10 μg/ml, MBL, Woburn Mass.), or rat IgG (10 μg/ml Jackson Immunoresearch, West Grove Pa.). Transwell assays were performed using 1×10^6 γδ T cells in 1 ml of complete medium+IL-2 placed in the lower chamber, with 5×10^5 DC in 100 μl placed in the upper chamber. […]
Cytokine levels of IFN-γ, IL-1β, IL-12p40, IL-12p70, IL-17, and TNF-α were detected using the Bio-Plex, MilliPlex, or Luminex immunoassay (Bio-Rad; Millipore-EMD; R&D Systems, Minneapolis, Minn.) according to the manufacturer's protocol. Briefly, samples were run undiluted or diluted 1:10 in RPMI complete media. 50 μl of the magnetic bead working solution was added to each well, then 50 μl of appropriate samples or standards were then added to wells and incubated at room temperature for 30-120 min at 800 rpm on an IKA MS 3 digital shaker. After three washes with 100 μl Bio-Plex wash buffer, incubation with 25 μl of detection antibody solution was done at room temperature for 30-60 min on the shaker. Following another set of three washes, 50 μl of streptavidin-phycoerythrin (PE) in assay buffer was added to each well and incubated as described for the previous step. After an additional three washes, 125 μl of assay buffer was added. Sample data was analyzed with Bio-Plex Manager software.
The following monoclonal antibodies to murine cell surface molecules were purchased from BioLegend: PE-conjugated anti-CD25, APC-conjugated anti-TCR-γδ, and TNF-α neutralizing antibody. Rat IgG was purchased from Jackson Immunoresearch (West Grove, Pa.). For direct staining, single cell suspensions (1×10^6 total cells per staining condition) were washed with cold (4° C.) PBS containing 1% (w/v) BSA fraction V (Sigma) (PBS/1% BSA), incubated with unconjugated rat IgG (50 μg/ml) for 15 min at 4° C., washed again, and then incubated with the appropriate antibodies in PBS/1% BSA. After washing, the cells were fixed with freshly made 1% (v/v) methanol-free formaldehyde (Ted Pella Inc., Redding, Calif.) in PBS/1% BSA.

human DC = assay: Cell death of human DC from peripheral blood monocytes; type: cell-based; conditions: addition of IL-4 to GM-CSF culture
Description: (§2) Human monocytes were obtained as CD14^− cells by magnetic bead purification (Miltenyi Biotech, Auburn, Calif.) from peripheral blood of healthy volunteers. Myeloid DC were prepared by culture of monocytes in AIM V media plus 10% fetal calf serum (HyClone) with 800 U/ml of granulocyte-macrophage colony-stimulating factor (GM-CSF), (BioLegend, San Diego, Calif.) without or with 500 U/ml IL-4 (BioLegend). Cell death was examined by terminal deoxynucleotidyl transferase dUTP nick end labeling (TUNEL). Briefly, cells were stained for expression of cell surface molecules, and then fixed with 1% methanol-free formaldehyde followed by 70% ethanol. After washing, the TUNEL reaction was performed by incubating cells in 50 μl of reaction mix containing 10 units of terminal deoxribosyl transferase (TdT), 2.5 mM cobalt chloride in 1× TdT buffer, and 0.2 pmol/μl of FITC-dUTP (Roche, Indianapolis, Ind.) at 37° C. for 1 hour. The cells were washed twice and fixed in 1% methanol-free formaldehyde. Murine thymocytes were included as a positive control for apoptotic cells. Flow cytometry was performed on an LSRII (BD Biosciences, San Jose, Calif.) calibrated with compensation beads (BD Biosciences). Analysis was performed using FlowJo software (Tree Star, Inc., Ashland, Oreg.).

c-FLIP, caspase-8 = target: T1, c-FLIP, caspase-8 (Mus musculus, UniProt O89110); assay: c-FLIP and active caspases in BMDC (biotin-VAD precipitation, immunoblot); type: cell-based, mice
T1 construct: endogenous in cells; host or cells: bone marrow-derived dendritic cells (BMDC), day 7, grown in GM-CSF with or without IL-4; whole cell lysates and biotin-VAD precipitates
T1 sequence (O89110 219-480): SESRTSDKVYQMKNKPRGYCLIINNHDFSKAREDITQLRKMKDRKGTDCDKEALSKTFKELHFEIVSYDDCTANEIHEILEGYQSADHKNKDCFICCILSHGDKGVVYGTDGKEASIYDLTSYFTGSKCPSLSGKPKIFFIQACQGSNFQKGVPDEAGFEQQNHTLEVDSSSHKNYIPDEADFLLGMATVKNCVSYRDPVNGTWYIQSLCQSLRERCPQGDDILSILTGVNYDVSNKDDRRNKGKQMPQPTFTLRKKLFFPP
T1 sequence (O35732 whole entry partner): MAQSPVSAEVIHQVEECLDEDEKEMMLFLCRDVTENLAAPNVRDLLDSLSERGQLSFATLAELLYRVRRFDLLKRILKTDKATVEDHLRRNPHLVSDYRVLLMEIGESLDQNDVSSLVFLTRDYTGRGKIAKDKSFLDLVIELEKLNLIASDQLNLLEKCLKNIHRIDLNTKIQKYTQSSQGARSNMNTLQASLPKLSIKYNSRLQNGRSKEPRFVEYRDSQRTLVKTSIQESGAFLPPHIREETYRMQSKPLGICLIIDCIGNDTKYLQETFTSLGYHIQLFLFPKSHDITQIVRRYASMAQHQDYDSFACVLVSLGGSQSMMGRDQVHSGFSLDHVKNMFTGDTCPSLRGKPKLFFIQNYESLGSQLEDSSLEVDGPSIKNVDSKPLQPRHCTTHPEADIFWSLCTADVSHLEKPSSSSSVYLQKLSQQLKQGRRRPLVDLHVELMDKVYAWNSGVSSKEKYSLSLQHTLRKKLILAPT
Description: as §1
Day 7 BMDC were lysed in Tris-buffer containing Complete Protease Inhibitor (Roche), 0.2% NP-40 (Roche), and biotin-VAD-fmk (10 μM, MP Biomedicals, Santa Ana, Calif.). Insoluble cell fragments were removed by centrifugation, and the protein concentration of the resulting whole cell lysates was determined by Bradford assay (BioRad, Hercules, Calif.). Whole cell lysates (30 μg per lane) were separated by SDS-PAGE. Precipitation of active caspases was performed by rocking 600 μg of whole cell lysates initially with sepharose 4B beads (Sigma) at 4° C. for 2 hours to remove nonspecific binding of proteins to the beads, followed by overnight rocking incubation with streptavidin-conjugated sepharose beads (Invitrogen) at 4° C. Release of biotin-VAD-fmk-labeled caspases from the streptavidin beads was achieved by heating to 95° C. for 10 min in Laemmli buffer. After gel electrophoresis, proteins were transferred to PVDF membranes (0.2 μm pore size, Bio-Rad), and immunoblots were performed using antibodies (1 μg/ml) against caspase-3, caspase-8 (both Cell Signaling, Danvers, Mass.), caspase-9 (Stressgen, Farmingdale, N.Y.), and RIPK1 (BD Biosciences).

BMDC = assay: Cell death of BMDC by TUNEL assay; type: cell-based, mice; conditions: GM-CSF-cultured BMDC, zVAD 50 μM + Necrostatin 50 μM
Description: as §1
as §2, with “Cell” for “Human monocytes were obtained as CD14^− cells by magnetic bead purification (Miltenyi Biotech, Auburn, Calif.) from peripheral blood of healthy volunteers. Myeloid DC were prepared by culture of monocytes in AIM V media plus 10% fetal calf serum (HyClone) with 800 U/ml of granulocyte-macrophage colony-stimulating factor (GM-CSF), (BioLegend, San Diego, Calif.) without or with 500 U/ml IL-4 (BioLegend). Cell”

[2] = exogenous TNF-α (2.5 μg/ml) added, absence of Borrelia
[3] = γδ T cells + BMDC + B. burgdorferi, zVAD+Necrostatin, 20 h

With `C[C@H](NC(=O)C(=O)Nc1ccccc1C(C)(C)C)C(=O)N[C@@H](CC(=O)O)C(=O)COc1c(F)c(F)cc(F)c1F` [IDN-6556] as the compound, how does the “preserving liver function during hepatitis C virus infection” value [1] read?
The value was “showing promise”.

What about the serious side-effects [1] of the same compound?
Its serious side-effects is “without exhibiting serious side-effects”.

For TNF-α, which “production of IFNγ by γδ T cells” value (γδ T cells; [2]) is on record?
Its value is “did not augment production”.

What about the “production of IL-17 by γδ T cells” value (γδ T cells; [2]) of the same compound?
Its value is “did not augment production”.

For “IL-4: cytokine added with GM-CSF during generation of BMDC; upregulates c-FLIP”, which “zVAD-induced death of human DC” value (human DC) is on record?
Its value is “blocked”.

And the “level of c-FLIP” value (c-FLIP, caspase-8; BMDC grown in GM-CSF+IL-4 vs GM-CSF, 7 days)?
The value was “considerably increased”.

And the “level of active caspase-8” value (c-FLIP, caspase-8; BMDC grown in GM-CSF+IL-4 vs GM-CSF, bVAD precipitates)?
The value was “increase in the level of active caspase-8”.

And the “levels of total cellular caspase-8, caspase-9, or caspase-3” value (c-FLIP, caspase-8; whole cell lysates, BMDC grown in GM-CSF or GM-CSF+IL-4)?
Its value is “no difference”.

What about the “ability of BMDC to activate Borrelia-stimulated γδ T cells” value (γδ T cells; BMDC grown with GM-CSF+IL-4, absence or presence of zVAD) of the same compound?
The value was “much less able to activate”.

Which “cell death of zVAD-treated BMDC” value (BMDC) does the source give for `CN1C(=O)C(Cc2c[nH]c3ccccc23)NC1=S` (centres unmarked) [Necrostatin] here?
Its value is “rescued them from cell death”.

And the “production of these cytokines (TNF-α, IL-17, IFN-γ); toxicity check” value (γδ T cells; Necrostatin with Borrelia in the absence of zVAD)?
Its value is “did not block production”.

What about the “TNF-α production by zVAD-treated BMDC” value (γδ T cells; [3]) of the same compound?
The value was “reversed”.

What about the “production of IFN-γ by γδ T cells” value (γδ T cells; [3]) of the same compound?
The value was “reversed”.

And the “production of IL-17 by γδ T cells” value (γδ T cells; [3])?
Its value is “reversed”.
